Source: ChEMBL document CHEMBL1201862, “PubChem BioAssay data set” (2004)
Values joined by “and” are separate entries in the source; they are usually repeats but may differ in a detail not shown here. Equal entries are not always repeated.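 Each compound was tested at five concentrations against cells in 96-well plates for 48 hours. At the GI50, growth is halved.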 Active and inactive are the calls of the source. Cut-off read from the data, not from the text of the source: active = GI50 up to about 1.1 µM and inactive = higher.

What was measured:
Experiment in all cases: growth of human tumour cells (NCI), 48 h
CCRF-CEM = test system: CCRF-CEM
IGROV-1 = test system: IGROV-1
HL-60 = test system: HL-60
U-251 = test system: U-251
SNB-75 = test system: SNB-75
A498 = test system: A498
HOP-92 = test system: HOP-92
OVCAR-5 = test system: OVCAR-5
SR = test system: SR
UACC-257 = test system: UACC-257
SNB-19 = test system: SNB-19
UACC-62 = test system: UACC-62
MCF7 = test system: MCF7
OVCAR-3 = test system: OVCAR-3
SK-MEL-2 = test system: SK-MEL-2
M14 = test system: M14
COLO 205 = test system: COLO 205
HCT-116 = test system: HCT-116
SF-268 = test system: SF-268
A549 = test system: A549
Malme-3M = test system: Malme-3M
SW-620 = test system: SW-620
SN12C = test system: SN12C
HCT-15 = test system: HCT-15
TK-10 = test system: TK-10
PC-3 = test system: PC-3
NCI/ADR-RES = test system: NCI/ADR-RES
HOP-62 = test system: HOP-62
Hs-578T = test system: Hs-578T
MDA-MB-435 = test system: MDA-MB-435
T47D = test system: T47D
SK-OV-3 = test system: SK-OV-3
MDA-N = test system: MDA-N
KM12 = test system: KM12
SK-MEL-5 = test system: SK-MEL-5
K562 = test system: K562
ACHN = test system: ACHN
SF-539 = test system: SF-539
MOLT-4 = test system: MOLT-4
NCI-H460 = test system: NCI-H460
DU-145 = test system: DU-145
NCI-H23 = test system: NCI-H23
OVCAR-4 = test system: OVCAR-4
OVCAR-8 = test system: OVCAR-8
SK-MEL-28 = test system: SK-MEL-28
HT-29 = test system: HT-29
CAKI-1 = test system: CAKI-1
SF-295 = test system: SF-295
UO-31 = test system: UO-31
NCI-H226 = test system: NCI-H226
RPMI-8226 = test system: RPMI-8226
HCC 2998 = test system: HCC 2998
MDA-MB-231 = test system: MDA-MB-231
LOX IMVI = test system: LOX IMVI
NCI-H522 = test system: NCI-H522

Measured: GI50

CC[C@@]1(O)C[C@H](OC2CC(N(C)C)C(OC3CC(O)C(OC4CCC(=O)C(C)O4)C(C)O3)C(C)O2)c2c(cc3c(c2O)C(=O)c2c(O)ccc(O)c2C3=O)[C@H]1C(=O)OC (some centres undefined)
active: CCRF-CEM < 0.1 nM | IGROV-1 < 0.0001 µM | HL-60 < 0.1 nM | U-251 < 0.01 µM | SNB-75 0.0181 µM | A498 < 10 nM | HOP-92 < 10 nM | OVCAR-5 0.01 µM | SR < 0.01 µM | UACC-257 0.0153 µM | SNB-19 < 0.0001 µM | UACC-62 < 10 nM | MCF7 < 0.1 nM | OVCAR-3 < 10 nM | SK-MEL-2 < 0.01 µM | M14 < 0.01 µM | COLO 205 < 0.0001 µM

CN1C2C=CC(=O)C1C(C#N)C2 (centres undefined)
30.5 µM and 24.1 µM: HCT-15
inactive: HCT-116 33.5 µM and 18.9 µM | CCRF-CEM 23.2 µM and 19 µM | SF-268 95.9 µM and 75.5 µM | A549 66.4 µM and 34.5 µM | Malme-3M 24 µM and 40 µM | IGROV-1 56 µM | HL-60 32.2 µM and 18.6 µM | A498 49.5 µM and 46.1 µM | SW-620 28.7 µM and 51.8 µM | SN12C 59.7 µM and 35.8 µM | HOP-92 9.82 µM and 16.4 µM | TK-10 > 100 µM and 66.4 µM | PC-3 > 100 µM | NCI/ADR-RES 30.5 µM and 28.2 µM | HOP-62 94.4 µM | Hs-578T > 100 µM and 85.3 µM | MDA-MB-435 29.5 µM and 42.9 µM | T47D 21.1 µM and 39.2 µM | SK-OV-3 > 100 µM and 83.8 µM | MDA-N 29.1 µM and 41.3 µM | KM12 42.9 µM and 38.5 µM | SNB-19 77.8 µM | UACC-62 80.4 µM and 76.4 µM | MCF7 31.8 µM and 35.8 µM | OVCAR-3 62.1 µM and 35.4 µM | SK-MEL-5 55.1 µM | K562 36.1 µM and 19.3 µM | ACHN 72.3 µM and 52.5 µM | SF-539 28.4 µM and 36.3 µM | MOLT-4 30.1 µM and 29.5 µM | NCI-H460 37.2 µM and 31.7 µM | DU-145 68.7 µM and 40 µM | NCI-H23 32.4 µM and 22.3 µM

C=CCP(=O)(CC=C)C(Cl)Cl
inactive: HCT-116 > 100 µM | CCRF-CEM > 100000 nM | OVCAR-4 > 100 µM | A549 > 100 µM | IGROV-1 > 100 µM | OVCAR-8 > 100 µM | HL-60 > 100000 nM | U-251 > 100 µM | SNB-75 > 100 µM | SW-620 > 100 µM | SN12C > 100 µM | HOP-92 > 100000 nM | TK-10 > 100 µM | PC-3 > 100 µM | SK-MEL-28 > 100 µM | NCI/ADR-RES > 100 µM | HOP-62 > 100 µM | Hs-578T > 100 µM | OVCAR-5 > 100 µM | T47D > 100 µM | SK-OV-3 > 100 µM | SR > 100 µM | MDA-N > 100 µM | HT-29 > 100 µM | UACC-257 > 100 µM | SNB-19 > 100 µM | CAKI-1 > 100 µM | MCF7 > 100000 nM | OVCAR-3 > 100000 nM | SK-MEL-5 > 100 µM | SK-MEL-2 > 100 µM | K562 > 100 µM | ACHN > 100 µM | M14 > 100 µM | SF-295 > 100 µM | UO-31 > 100 µM | NCI-H226 > 100 µM | MOLT-4 > 100 µM | RPMI-8226 > 100 µM | HCC 2998 > 100 µM | MDA-MB-231 > 100 µM | NCI-H460 > 100 µM | LOX IMVI > 100 µM | COLO 205 > 100 µM | DU-145 > 100 µM | NCI-H23 > 100 µM | NCI-H522 > 100 µM
> 100 µM: HCT-15
